Reference: patent publication US20060135611A1, “Use of 2,5-dihydroxybenzenesulfonic compounds for the treatment of disorders based on an impairment of no production and/or of regulation of edhf function” (priority 2002, published 2006)

Experiments:
[1] = test system: human penile resistance arteries (HPRA); assay: Vascular reactivity of resistance penile arteries (myograph, norepinephrine-contracted)
Procedure: Penile small arteries, helicine arteries (lumen diameter 150-400 μm), which are the terminal branches of deep penile arteries, were dissected by carefully removing the adhering trabecular tissue, and arterial ring segments (of 2 mm length) were subsequently mounted on two 40 μm wires on microvascular double Halpern-Mulvany myographs (J.P. Trading, Aarhus, Denmark) for isometric tension recordings. The vascular segments were allowed to equilibrate for 30 min in physiological salt solution (PSS) of the following composition (each given in mM): 119 NaCl, 4.6 KCl; 1.5 CaCl2, 1.2 MgCl2, 24.9 NaHCO3, 11 Glucose, 1, 2 KH2PO4, 0.027 EDTA in water at 37° C., continuously bubbled with a 95% O2/5% CO2 mixture to maintain a pH of 7.4. Passive tension and internal circumference of the vascular segments when relaxed in situ under a transmural pressure of […] (L100) were determined. The vascular segments were then set to an internal circumference eqivalent to 90% of L100, at which the force development was close to maximal as described in Mulvany MJ, Halpern W., “Contractile properties of small resistance arteries in spontaneously hypertensive and normotensive rats”, Circ. Res., 41, 19-26, 1977. The respective literature description is incorporated by reference and is part of the disclosure.
The preparations were then exposed to 125 mM K^+(KPSS, equimolar substitution of […] in PSS) and the contractile response was measured. The arteries were contracted with 1 μm norepinephrine (approximately 80% of KPSS induced contraction) and relaxation responses were evaluated by cumulative additions of compounds to the chambers.
Relaxation responses are expressed as percentage of total relaxation (loss in tone) induced by the addition of 0.1 mM papaverine HCl to the chambers at the end of the experiment. All data are expressed as mean ± standard error. Complete concentration-response or frequency-response curves were obtained and compared by a two-factor analysis of variance (ANOVA) statistical test using StatView sotfware tor Apple computers. Erectile responses were determined by measuring the area under the curve (AUC) of the intracavemosal pressure increases to rat cavemosal nerve stimulation normalized by mean arterial pressure values. The complete frequency-response curves were compared by a two-factor ANOVA test.

[2] = test system: Male genetically diabetic rats (BB/wor rats); assay: Erectile responses to cavernosal nerve stimulation in anesthetized diabetic rats; type: in vivo, rat; details: 10 mg/kg intravenous; 60 min after administration; 1, 3 and 10 Hz
Procedure: Male genetically diabetic rats (BB/wor rats, Mölegaard Breeding and Research, Svensved, Denmark) were anesthetized with ketamine (60 mg/kg). The surgical procedure consisted of dissection and isolation of the right cavernous nerve through an abdominal midline incision and exposure of penile crura through a transverse perineal incision. Intracavemosal pressure (ICP) measurements were accomplished by insertion into the right crus of a 23-gauge needle connected to a disposable pressure transducer (Abbott, Sligo, Ireland) and a data acquisition system (ADInstruments, Castle Hill, Australia). Left carotid artery and right external jugular vein were catheterized for constant blood pressure measurement and saline or drug infusion, respectively. Electrical stimulation was applied by a delicate platinum bipolar hook electrode connected to a stimulator and current amplifier (Cibertec, Madrid, Spain). […]
Relaxation responses are expressed as percentage of total relaxation (loss in tone) induced by the addition of 0.1 mM papaverine HCl to the chambers at the end of the experiment. All data are expressed as mean ± standard error. […] Erectile responses were determined by measuring the area under the curve (AUC) of the intracavemosal pressure increases to rat cavemosal nerve stimulation normalized by mean arterial pressure values. […]

## O=S(=O)(O)c1cc(O)ccc1O [Calcium dobesilate, calcium 2,5-dihydroxybenzenesulfonate]
[1]; APA 100 nM + CTX 100 nM, NOS and COX inhibition
  potentiating effects on ACh-induced relaxation of HPRA with APA and CTX: abolished the potentiating effects
[1]; calcium dobesilate 10 μM
  effect on ACh-induced relaxation of HPRA: markedly potentiated
[1]; calcium dobesilate 10 μM, NOS and COX inhibition
  potentiation of ACh-induced relaxation of HPRA under combined inhibition of NOS and COX: not significantly affected
[1]; calcium dobesilate 10 μM, high potassium 35 mM
  potentiation of ACh-induced relaxation of HPRA at high potassium concentration: abolished
[1]; miconazole 0.3 mM
  potentiating effects on ACh-induced relaxation of HPRA resistant to NOS and COX inhibition, with miconazole: significantly reduced the potentiating effects
[2]
  erectile responses to cavernosal nerve stimulation (AUC of ICP increase normalized by mean arterial pressure): significantly enhanced
